Laboratory results: PMC4145329 (Marine Drugs, 2014)
Converted amounts (≈) assume the structure as drawn.

What was measured:
HepG2 cells [1] = assay: MTT anti-proliferative assay, HepG2; type: cell-based, human; conditions: for Cytotoxicity IC50, HepG2: human, 72 h
Experimental: (§1) All of the cells were incubated at 37 °C in a humidified atmosphere composed of 95% air and 5% CO2. The cell viability was determined by measuring the ability of cells to transform MTT (Genview, Houston, TX, USA) to a purple formazan dye. The cells were seeded in 96-well tissue culture plates at 2.5 × 10^3 cells/well for 24 h. […] After incubation, 20 μL/well of MTT solution (5 mg/mL phosphate buffered saline) were added and incubated for 5 h. The medium was aspirated and replaced with 100 μL/well of DMSO to dissolve the formazan salt. The color intensity of the formazan solution, which reflects the cell growth condition, was measured at 570 nm using a microplate spectrophotometer (SpectroAma™ 250, Winooski, VT, USA).

SW480 cells = assay: MTT anti-proliferative assay, SW480; type: cell-based, human; conditions: for Cytotoxicity IC50, SW480: human, 72 h
Experimental: as §1

U87 cells = assay: MTT anti-proliferative assay, U87; type: cell-based, human; conditions: for Cytotoxicity IC50, U87: human, 72 h
Experimental: as §1

MCF-7 cells = assay: MTT anti-proliferative assay, MCF-7; type: cell-based, human; conditions: for Cytotoxicity IC50, MCF-7: human, 72 h
Experimental: as §1

[2] = MTT anti-proliferative assay, L02; type: cell-based; conditions: human
Experimental: as §1

caspase-3 = assay: Western blot, cleaved caspase-3 in HepG2; type: cell-based, human; conditions: HepG2, 3, 6, 12, and 24 μg/mL, 72 h
Experimental: (§2) The protein was extracted with RIPA buffer and quantified using the Bradford method. Equal amounts of protein were loaded into each well. After SDS-PAGE, the proteins were transferred to a polyvinylidene difluoride (PVDF) membrane. The membrane was blocked with 5% non-fat milk for 1 h and incubated with a primary antibody (Cell Signaling Technology, Danvers, MA, USA, Rabbit monoclonal antibody, 1:1000) at 4 °C overnight. After washing two times with TBST (Tris-buffered saline with 0.1% Tween-20) buffer, the membrane was incubated with a secondary antibody (goat-anti-rabbit horseradish peroxidase (HRP)-conjugated 1:15,000) at room temperature for 1 h. The membranes were washed three times (8 min each time) with TBST. The intensity of the specific immunoreactive bands was detected through enhanced chemiluminescence (ECL).

HepG2 cells [3] = assay: Annexin V-FITC/PI flow cytometry apoptosis analysis; type: cell-based, human; conditions: 72 h; for percentage of early apoptotic cells: mean; for Q4 (lower right, early apoptotic cells), representative dot plot: Figure 3 picture
Experimental: The apoptotic cells were quantified using an Annexin V-FITC (Sigma-Aldrich, USA) Apoptosis Detection Kit according to the manufacturer’s instructions. […] Five μL of Annexin V-fluorescein isothiocyanate (FITC) and 5 μL of PI were added. The analysis was performed with a FACScan flow cytometer (Coulter Epics Elite, Miami, FL, USA). The cells in the FITC-positive and PI-negative fraction were regarded as apoptotic cells.

HepG2 cells [4] = assay: Hoechst33342 staining, nuclear damage observation; type: cell-based, human; conditions: HepG2, 3, 6, 12 μg/mL, 72 h
Experimental: Apoptotic nuclear morphology was visualized by the Hoechsst33342 staining technique. Cells were fixed with 3.7% of paraformaldehyde for 10 min at room temperature and washed three times with PBS. Thus, paraformaldehyde-fixed cells were stained using Hoechsst33342 (10 μg/mL) in the dark for 10 min. After washing three times with PBS, cells were visualized using fluorescence microscope.

caspase-9 = assay: Western blot, cleaved caspase-9 in HepG2; type: cell-based, human; conditions: HepG2, 3, 6, 12, and 24 μg/mL, 72 h
Experimental: as §2

PARP = assay: Western blot, cleaved PARP in HepG2; type: cell-based, human; conditions: HepG2, 3, 6, 12, and 24 μg/mL, 72 h
Experimental: as §2

[5] = test system: hepatocellular carcinoma HepG2; conditions: earlier research; cited from earlier work
[6] = test system: human renal cell carcinoma GRC-1; conditions: earlier research; cited from earlier work

Compound | Cytotoxicity IC50, HepG2 (HepG2 cells [1]) | Cytotoxicity IC50, SW480 (SW480 cells) | Cytotoxicity IC50, U87 (U87 cells) | Cytotoxicity IC50, MCF-7 (MCF-7 cells) | IC50 at 72 h [2] | cleaved caspase-3 expression (caspase-3) | Q4 (lower right, early apoptotic cells), representative dot plot (HepG2 cells [3]; HepG2, 6 μg/ml) | Q4 (lower right, early apoptotic cells), representative dot plot (HepG2 cells [3]; HepG2, 12 μg/ml) | nuclear morphology (Hoechst33342) (HepG2 cells [4]) | cleaved caspase-9 expression (caspase-9) | cleaved PARP expression (PARP) | further results
CC(C)C[C@@H]1NC(=O)[C@H](CC(C)C)N(C)C(=O)[C@H](CC(C)C)NC(=O)[C@H](CC(C)C)N(C)C(=O)[C@H](Cc2ccccc2)NC1=O [Compound A1, Cyclo(Phe-N-Me-Leu-Leu-N-Me-Leu-Leu)] | 4.11 ± 0.16 µg/mL | 12.37 ± 1.01 µg/mL | >40 µg/mL | 9.40 ± 0.43 µg/mL | > 40 µg/mL |  |  |  |  |  |  | 
CC(C)C[C@@H]1NC(=O)[C@H](CC(C)C)N(C)C(=O)[C@H](CC(C)C)NC(=O)[C@H](CC(C)C)N(C)C(=O)[C@@H](Cc2ccccc2)NC1=O [Compound A2, Cyclo(D-Phe-N-Me-Leu-Leu-N-Me-Leu-D-Leu)] | 4.56 ± 0.20 µg/mL | 5.75 ± 0.19 µg/mL | >40 µg/mL | 9.64 ± 0.35 µg/mL | > 40 µg/mL |  |  |  |  |  |  | 
CC(C)C[C@@H]1NC(=O)[C@@H](CC(C)C)N(C)C(=O)[C@H](CC(C)C)NC(=O)[C@@H](Cc2ccccc2)N(C)C(=O)[C@H](CC(C)C)NC1=O [Compound A3, Cyclo(Me-D-Leu-Leu-Leu-Me-D-Phe-Leu)] | 5.58 ± 0.11 µg/mL | 10.20 ± 0.15 µg/mL | 20.16 ± 0.30 µg/mL | 7.23 ± 0.27 µg/mL | > 40 µg/mL |  |  |  |  |  |  | 
CC(C)C[C@@H]1NC(=O)[C@@H](CC(C)C)N(C)C(=O)[C@H](CC(C)C)NC(=O)[C@@H](Cc2ccccc2)N(C)C(=O)[C@@H](CC(C)C)NC1=O [Compound A4, Cyclo(Me-D-Leu-Leu-D-Leu-Me-D-Phe-Leu)] | 6.27 ± 0.13 µg/mL | 8.60 ± 0.08 µg/mL | 2.82 ± 0.10 µg/mL | 6.56 ± 0.18 µg/mL | > 40 µg/mL |  |  |  |  |  |  | 
CC(C)C[C@@H]1NC(=O)[C@@H](CC(C)C)NC(=O)[C@@H](CC(C)C)N(C)C(=O)[C@@H](CC(C)C)NC(=O)[C@@H](Cc2ccccc2)N(C)C1=O [Compound A5, Cyclo(Leu-D-N-Me-Phe-D-Leu-D-N-Me-Leu-D-Leu)] | 1.46 ± 0.09 µg/mL | 5.10 ± 0.12 µg/mL | 1.85 ± 0.11 µg/mL | 4.18 ± 0.15 µg/mL | 10.6 ± 0.6 µg/mL (≈ 16.8 µM) | significantly increased | 19.9% | 22.4% | chromatin condensation at the edges of the nuclear membrane and nuclear fragmentation | significantly increased | significantly increased | fold more active than galaxamide, HepG2 (HepG2 cells [1]; ratio of IC50 values): 3.17 fold; fold more active than galaxamide, SW480 (SW480 cells; ratio of IC50 values): 8.59 fold; percentage of early apoptotic cells (HepG2 cells [3]; HepG2, 3 μg/mL): 6.6% ± 1.7%; Q4 (lower right, early apoptotic cells), representative dot plot (HepG2 cells [3]; HepG2, 3 μg/ml): 6.6%; percentage of early apoptotic cells (HepG2 cells [3]; HepG2, 12 μg/mL): 22.4% ± 2.4%; fold more active than galaxamide, U87 (U87 cells; ratio of IC50 values): 5.73 fold; fold more active than galaxamide, MCF-7 (MCF-7 cells; ratio of IC50 values): 3.37 fold
Galaxamide |  |  |  |  |  | significantly increased | 2.1% | 13.4% | chromatin condensation at the edges of the nuclear membrane and nuclear fragmentation | significantly increased | significantly increased | percentage of early apoptotic cells (HepG2 cells [3]; HepG2, 6 μg/mL): 2.3% ± 0.3%; percentage of early apoptotic cells (HepG2 cells [3]; HepG2, 24 μg/mL): 18.8% ± 1.9%; Q4 (lower right, early apoptotic cells), representative dot plot (HepG2 cells [3]; HepG2, 24 μg/ml): 18.8%; antitumor activity against HepG2 [5]: significant antitumor activity; antitumor activity against GRC-1 [6]: significant antitumor activity
